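Cultured in 96-well plates, cells were exposed to test compound for 48 hours across five concentrations. The concentration for 50% growth inhibition is given as GI50. The concentration for full growth arrest is given as TGI.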
Legend:
Assay in all cases: growth of human tumour cells (NCI), 48 h
A498 renal = tested on: A498 renal
HT29 colon = tested on: HT29 colon
SF-295 CNS = tested on: SF-295 CNS
LOX IMVI melanoma = tested on: LOX IMVI melanoma
PC-3 prostate = tested on: PC-3 prostate
SF-539 CNS = tested on: SF-539 CNS
SNB-19 CNS = tested on: SNB-19 CNS
HCT-15 colon = tested on: HCT-15 colon
M14 melanoma = tested on: M14 melanoma
EKVX NSCLC = tested on: EKVX NSCLC
A549 NSCLC = tested on: A549 NSCLC
ACHN renal = tested on: ACHN renal
UO-31 renal = tested on: UO-31 renal
RXF 393 renal = tested on: RXF 393 renal
SNB-75 CNS = tested on: SNB-75 CNS
OVCAR-4 ovarian = tested on: OVCAR-4 ovarian
MCF7 breast = tested on: MCF7 breast
SF-268 CNS = tested on: SF-268 CNS
CAKI-1 renal = tested on: CAKI-1 renal
UACC-62 melanoma = tested on: UACC-62 melanoma
NCI-H226 lung = tested on: NCI-H226 lung
HS 578T breast = tested on: HS 578T breast
NCI/ADR-RES ovarian = tested on: NCI/ADR-RES ovarian
HCC-2998 colon = tested on: HCC-2998 colon
OVCAR-8 ovarian = tested on: OVCAR-8 ovarian
UACC-257 melanoma = tested on: UACC-257 melanoma
OVCAR-3 ovarian = tested on: OVCAR-3 ovarian
HCT-116 colon = tested on: HCT-116 colon
SW-620 colon = tested on: SW-620 colon
BT-549 breast = tested on: BT-549 breast
SN12C renal = tested on: SN12C renal
SK-MEL-2 melanoma = tested on: SK-MEL-2 melanoma
NCI-H522 lung = tested on: NCI-H522 lung
RPMI-8226 leukemia = tested on: RPMI-8226 leukemia
MDA-MB-231 breast = tested on: MDA-MB-231 breast
KM12 colon = tested on: KM12 colon
COLO 205 colon = tested on: COLO 205 colon
MDA-MB-435 = tested on: MDA-MB-435
SK-MEL-28 melanoma = tested on: SK-MEL-28 melanoma
NCI-H460 lung = tested on: NCI-H460 lung
SK-MEL-5 melanoma = tested on: SK-MEL-5 melanoma
OVCAR-5 ovarian = tested on: OVCAR-5 ovarian
786-0 renal = tested on: 786-0 renal
DU-145 prostate = tested on: DU-145 prostate
IGROV1 ovarian = tested on: IGROV1 ovarian
T-47D breast = tested on: T-47D breast
HOP-62 NSCLC = tested on: HOP-62 NSCLC
TK-10 renal = tested on: TK-10 renal
CCRF-CEM leukemia = tested on: CCRF-CEM leukemia
HOP-92 NSCLC = tested on: HOP-92 NSCLC
SK-OV-3 ovarian = tested on: SK-OV-3 ovarian
MALME-3M melanoma = tested on: MALME-3M melanoma
U251 CNS = tested on: U251 CNS

Q: How did the GI50 (A498 renal) turn out when `Clc1ccc2oc3c(NCCCn4ccnc4)c4ccccc4nc3c2c1` was run?
A: > 100 µM

Q: And the TGI (A498 renal)?
A: > 100 µM

Q: What about the GI50 (HT29 colon) of the same compound?
A: 6.14 µM

Q: What about the TGI (HT29 colon) of the same compound?
A: 23.6 µM

Q: And the GI50 (SF-295 CNS)?
A: 17.9 µM

Q: And the TGI (SF-295 CNS)?
A: 66.6 µM

Q: And the GI50 (LOX IMVI melanoma)?
A: 10.4 µM

Q: What about the TGI (LOX IMVI melanoma) of the same compound?
A: 39.1 µM

Q: And the GI50 (PC-3 prostate)?
A: 24.9 µM

Q: And the TGI (PC-3 prostate)?
A: > 100 µM

Q: And the GI50 (SF-539 CNS)?
A: 12.8 µM

Q: And the TGI (SF-539 CNS)?
A: 28.2 µM

Q: And the GI50 (SNB-19 CNS)?
A: 27.8 µM

Q: What about the TGI (SNB-19 CNS) of the same compound?
A: > 100 µM

Q: And the GI50 (HCT-15 colon)?
A: 11.7 µM

Q: What about the TGI (HCT-15 colon) of the same compound?
A: > 100 µM

Q: What about the GI50 (M14 melanoma) of the same compound?
A: 28 µM

Q: And the TGI (M14 melanoma)?
A: > 100 µM

Q: What about the GI50 (EKVX NSCLC) of the same compound?
A: 51.7 µM

Q: And the TGI (EKVX NSCLC)?
A: > 100 µM

Q: And the GI50 (A549 NSCLC)?
A: 34.6 µM

Q: What about the TGI (A549 NSCLC) of the same compound?
A: > 100 µM

Q: What about the GI50 (ACHN renal) of the same compound?
A: 4.84 µM

Q: And the TGI (ACHN renal)?
A: > 100 µM

Q: What about the GI50 (UO-31 renal) of the same compound?
A: 13.2 µM

Q: And the TGI (UO-31 renal)?
A: 67.4 µM

Q: What about the GI50 (RXF 393 renal) of the same compound?
A: 4.65 µM

Q: And the TGI (RXF 393 renal)?
A: 23 µM

Q: What about the GI50 (SNB-75 CNS) of the same compound?
A: 20.4 µM

Q: And the TGI (SNB-75 CNS)?
A: > 100 µM

Q: What about the GI50 (OVCAR-4 ovarian) of the same compound?
A: 11.8 µM

Q: And the TGI (OVCAR-4 ovarian)?
A: 41.2 µM

Q: And the GI50 (MCF7 breast)?
A: 16.1 µM

Q: What about the TGI (MCF7 breast) of the same compound?
A: > 100 µM

Q: What about the GI50 (SF-268 CNS) of the same compound?
A: 15.2 µM

Q: And the TGI (SF-268 CNS)?
A: > 100 µM

Q: What about the GI50 (CAKI-1 renal) of the same compound?
A: 11.4 µM

Q: And the TGI (CAKI-1 renal)?
A: > 100 µM

Q: What about the GI50 (UACC-62 melanoma) of the same compound?
A: 19.2 µM

Q: And the TGI (UACC-62 melanoma)?
A: 45.5 µM

Q: What about the GI50 (NCI-H226 lung) of the same compound?
A: 26.8 µM

Q: And the TGI (NCI-H226 lung)?
A: > 100 µM

Q: What about the GI50 (HS 578T breast) of the same compound?
A: 22.1 µM

Q: And the TGI (HS 578T breast)?
A: > 100 µM

Q: And the GI50 (NCI/ADR-RES ovarian)?
A: 7.77 µM

Q: What about the TGI (NCI/ADR-RES ovarian) of the same compound?
A: > 100 µM

Q: And the GI50 (HCC-2998 colon)?
A: 12.7 µM

Q: What about the TGI (HCC-2998 colon) of the same compound?
A: > 100 µM

Q: What about the GI50 (OVCAR-8 ovarian) of the same compound?
A: 12.7 µM

Q: And the TGI (OVCAR-8 ovarian)?
A: > 100 µM

Q: And the GI50 (UACC-257 melanoma)?
A: 39.9 µM

Q: And the TGI (UACC-257 melanoma)?
A: > 100 µM

Q: What about the GI50 (OVCAR-3 ovarian) of the same compound?
A: 23.8 µM

Q: And the TGI (OVCAR-3 ovarian)?
A: > 100 µM

Q: And the GI50 (HCT-116 colon)?
A: 4.48 µM

Q: What about the TGI (HCT-116 colon) of the same compound?
A: 31.3 µM

Q: And the GI50 (SW-620 colon)?
A: 5.13 µM

Q: And the TGI (SW-620 colon)?
A: > 100 µM

Q: What about the GI50 (BT-549 breast) of the same compound?
A: 16.9 µM

Q: What about the TGI (BT-549 breast) of the same compound?
A: 51.4 µM

Q: What about the GI50 (SN12C renal) of the same compound?
A: 9.75 µM

Q: What about the TGI (SN12C renal) of the same compound?
A: > 100 µM

Q: What about the GI50 (SK-MEL-2 melanoma) of the same compound?
A: > 100 µM

Q: And the TGI (SK-MEL-2 melanoma)?
A: > 100 µM

Q: And the GI50 (NCI-H522 lung)?
A: 15 µM

Q: What about the TGI (NCI-H522 lung) of the same compound?
A: > 100 µM

Q: And the GI50 (RPMI-8226 leukemia)?
A: 16.5 µM

Q: What about the TGI (RPMI-8226 leukemia) of the same compound?
A: 55.9 µM

Q: And the GI50 (MDA-MB-231 breast)?
A: 17.5 µM

Q: What about the TGI (MDA-MB-231 breast) of the same compound?
A: > 100 µM

Q: What about the GI50 (KM12 colon) of the same compound?
A: 15.4 µM

Q: And the TGI (KM12 colon)?
A: > 100 µM

Q: What about the GI50 (COLO 205 colon) of the same compound?
A: 10.9 µM

Q: What about the TGI (COLO 205 colon) of the same compound?
A: 37.7 µM

Q: What about the GI50 (MDA-MB-435) of the same compound?
A: 25.9 µM

Q: What about the TGI (MDA-MB-435) of the same compound?
A: > 100 µM

Q: And the GI50 (SK-MEL-28 melanoma)?
A: 34.4 µM

Q: And the TGI (SK-MEL-28 melanoma)?
A: > 100 µM

Q: What about the GI50 (NCI-H460 lung) of the same compound?
A: 5.26 µM

Q: And the TGI (NCI-H460 lung)?
A: 21.4 µM

Q: What about the GI50 (SK-MEL-5 melanoma) of the same compound?
A: 80.6 µM

Q: What about the TGI (SK-MEL-5 melanoma) of the same compound?
A: > 100 µM

Q: What about the GI50 (OVCAR-5 ovarian) of the same compound?
A: 24.9 µM

Q: What about the TGI (OVCAR-5 ovarian) of the same compound?
A: > 100 µM

Q: What about the GI50 (786-0 renal) of the same compound?
A: 16.3 µM

Q: What about the TGI (786-0 renal) of the same compound?
A: > 100 µM

Q: And the GI50 (DU-145 prostate)?
A: 23.3 µM

Q: And the TGI (DU-145 prostate)?
A: > 100 µM

Q: And the GI50 (IGROV1 ovarian)?
A: 21.9 µM

Q: What about the TGI (IGROV1 ovarian) of the same compound?
A: > 100 µM

Q: What about the GI50 (T-47D breast) of the same compound?
A: 36 µM

Q: And the TGI (T-47D breast)?
A: > 100 µM

Q: What about the GI50 (HOP-62 NSCLC) of the same compound?
A: 16.6 µM

Q: And the TGI (HOP-62 NSCLC)?
A: > 100 µM

Q: What about the GI50 (TK-10 renal) of the same compound?
A: 79 µM

Q: What about the TGI (TK-10 renal) of the same compound?
A: > 100 µM

Q: What about the GI50 (CCRF-CEM leukemia) of the same compound?
A: 8.66 µM

Q: And the TGI (CCRF-CEM leukemia)?
A: > 100 µM

Q: What about the GI50 (HOP-92 NSCLC) of the same compound?
A: 1.78 µM

Q: What about the TGI (HOP-92 NSCLC) of the same compound?
A: 22.7 µM

Q: What about the GI50 (SK-OV-3 ovarian) of the same compound?
A: > 100 µM

Q: What about the TGI (SK-OV-3 ovarian) of the same compound?
A: > 100 µM

Q: What about the GI50 (MALME-3M melanoma) of the same compound?
A: 39.2 µM

Q: And the TGI (MALME-3M melanoma)?
A: > 100 µM

Q: What about the GI50 (U251 CNS) of the same compound?
A: 26.5 µM

Q: What about the TGI (U251 CNS) of the same compound?
A: > 100 µM
